In one test the target is human P2X3 receptor (Homo sapiens (Human), UniProt P56373). Kind of test: Intracellular calcium measurement (FLIPR, Fluo-4) of antagonist activity at human P2X3 receptors. It is filed as cell-based. As to conditions: read-out: hP2X3 IC50. As for the experimental part: (§1) Intracellular Calcium Measurement to Assess Antagonist Activity at Human P2X3 and Human P2X2/3 Receptors
(§2) A fluorescent imaging plate reader (FLEX/FLIPR station; Molecular Devices) was used to monitor intracellular calcium levels using the calcium-chelating dye Fluo-4 (Molecular Probes). […] Cells expressing purinergic receptors P2X3 (human) or P2X2/3 (human) were plated at a density of 15,000 cells/well in collagen-coated 384-well plates approximately 20 hours before beginning the assay. […] The test compound was added in a volume of 5 μl and allowed to incubate for 30 min at 37° C. The final assay DMSO concentration is 1%. The agonist, α,β-Me-ATP, was added in a volume of 20 μl at a concentration representing the EC80 value. The fluorescence was measured for an interval of 90 sec at 2 sec intervals and analyzed based on the increase in peak relative fluorescence units (RFU) compared to the basal fluorescence. Peak fluorescence was used to determine the response to agonist obtained at each concentration of test compound by the following equation: % Response=100*(RFU(test compound)−RFU(control)/RFU(DMSO)−RFU(control))
(§3) The Examples were tested in triplicates per plate and mean values were plotted in Excel XLFit to determine IC50 values at the human P2X3 and human P2X2/3 receptors, percentage of maximal inhibition and the Hill coefficients.

The target in a further test is human P2X2/3 receptor (Homo sapiens (Human), UniProt P56373+Q9UBL9). Nature of the test: Intracellular calcium measurement (FLIPR, Fluo-4) of antagonist activity at human P2X2/3 receptors. It is filed as cell-based. As to conditions: human P2X2/3, FLIPR calcium assay, agonist α,β-Me-ATP; read-out: hP2X2/3 IC50. As for the experimental part: as §1, §2, §3
Background: Calcium flux is commonly read through the fluorescence of an indicator in the cells.

Setting [1] is: human P2X3, FLIPR calcium assay, agonist α,β-Me-ATP.

Like-named read-outs stand apart in the source and are kept apart here.

human P2X3 receptor, sequence (P56373 whole entry): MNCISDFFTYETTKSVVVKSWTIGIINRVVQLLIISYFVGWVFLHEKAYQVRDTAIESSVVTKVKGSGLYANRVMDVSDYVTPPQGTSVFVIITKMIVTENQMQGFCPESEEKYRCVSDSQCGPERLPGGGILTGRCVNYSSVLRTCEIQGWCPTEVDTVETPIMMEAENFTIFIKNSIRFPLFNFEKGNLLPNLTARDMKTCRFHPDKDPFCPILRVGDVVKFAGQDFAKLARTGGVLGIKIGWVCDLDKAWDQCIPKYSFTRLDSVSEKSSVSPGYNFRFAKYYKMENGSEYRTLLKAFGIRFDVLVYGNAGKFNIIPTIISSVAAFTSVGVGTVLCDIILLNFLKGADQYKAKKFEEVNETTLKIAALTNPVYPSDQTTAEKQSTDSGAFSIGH
human P2X2/3 receptor, sequence (P56373 whole entry): as above
human P2X2/3 receptor, sequence (Q9UBL9 whole entry): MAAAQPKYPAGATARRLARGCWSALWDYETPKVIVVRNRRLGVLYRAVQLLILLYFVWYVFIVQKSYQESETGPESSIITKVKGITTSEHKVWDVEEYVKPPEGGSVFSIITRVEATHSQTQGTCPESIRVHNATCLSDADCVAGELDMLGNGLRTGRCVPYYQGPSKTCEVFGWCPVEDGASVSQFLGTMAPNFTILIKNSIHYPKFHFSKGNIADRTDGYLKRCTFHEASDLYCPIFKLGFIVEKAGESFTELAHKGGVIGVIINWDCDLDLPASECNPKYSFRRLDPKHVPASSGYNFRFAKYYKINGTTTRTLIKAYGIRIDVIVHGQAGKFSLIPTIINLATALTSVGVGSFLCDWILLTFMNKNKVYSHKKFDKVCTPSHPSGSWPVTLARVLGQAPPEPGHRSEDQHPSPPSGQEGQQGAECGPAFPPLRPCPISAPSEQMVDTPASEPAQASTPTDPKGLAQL

On to `Cc1cnc(-c2cc(OC3CCOCC3)cc(C(=O)NC(C)c3ncc(Cl)cc3F)c2)s1` (stereo not shown) [Example 81, N-[1-(5-Chloro-3-fluoropyridin-2-yl)ethyl]-3-(5-methyl-1,3-thiazol-2-yl)-5-(tetrahydro-2H-pyran-4-yloxy)benzamide], for which the IC50 on human P2X3 receptor (setting [1]) came to 3 nM; at human P2X2/3 receptor, 34 nM.
As for `Cc1cnc(-c2cc(OC[C@@H]3CN(C)CCO3)cc(C(=O)N[C@H](C)c3ccc(C(F)(F)F)nc3)c2)s1` [Example 370, 3-{[(2S)-4-methylmorpholin 2-yl]methoxy}-5-(5-methyl-1,3-thiazol-2-yl)-N-{(1R)-1-[6-(trifluoromethyl)pyridin-3-yl]ethyl}benzamide], the values for the IC50 on human P2X3 receptor (setting [1]) and at human P2X2/3 receptor were 41 nM and 1010 nM, respectively.
With `Cc1cnc(-c2cc(OCC34CC(CO3)N(C)C4)cc(C(=O)N[C@H](C)c3cnc(C(F)(F)F)nc3)c2)s1` (stereo partly drawn) [Example 406, 3-[(5-methyl-2-oxa-5-azabicyclo[2.2.1]hept-1-yl)methoxy]-5-(5-methyl-1,3-thiazol-2-yl)-N-{(1R)-1-[2-(trifluoromethyl)pyrimidin-5-yl]ethyl}benzamide], the values for the IC50 at human P2X3 receptor (setting [1]) and at human P2X2/3 receptor were 26 nM and 2030 nM, respectively.
The corresponding values for `Cc1cnc(-c2cc(OC[C@@H]3CN(C)CCO3)cc(C(=O)N[C@H](C)c3ccc(C(F)(F)F)nn3)c2)s1` [Example 374, 3-{[(2S)-4-methylmorpholin-2-yl]methoxy}-5-(5-methyl-1,3-thiazol-2-yl)-N-{(1R)-1-[6-(trifluoromethyl)pyridazin-3-yl]ethyl}benzamide] are 55 nM and 2560 nM.
Turning to `C#CCOc1cc(C(=O)N[C@@H](C)c2cnc(C(F)(F)F)nc2)cc(-c2ncc(C)s2)c1` [Example 144, 3-(5-Methyl-1,3-thiazol-2-yl)-5-(prop-2-yn-1-yloxy)-N-{(1S)-1-[2-(trifluoromethyl)pyrimidin-5-yl]ethyl}benzamide], the IC50 on human P2X3 receptor (setting [1]) is 825 nM; on human P2X2/3 receptor it was at least 10000 nM.
In the case of `C[C@@H](NC(=O)c1cc(OC[C@@H]2CCOC2)cc(-c2ncc(C3CCC3)s2)c1)c1ccc(C(F)(F)F)nn1` [Example 297, 3-(5-cyclobutyl-1,3-thiazol-2-yl)-5-[(3R)-tetrahydrofuran-3-ylmethoxy]-N-{(1R)-1-[6-(trifluoromethyl)pyridazin-3-yl]ethyl}benzamide], the IC50 at human P2X3 receptor (setting [1]) was found to be 56 nM; on human P2X2/3 receptor, 933 nM.
For `CCc1cnc(-c2cc(OC[C@@H]3CN(C)CCO3)cc(C(=O)N[C@H](C)c3ccc(C(F)(F)F)nn3)c2)s1` [Example 418, 3-(5-Ethyl-1,3-thiazol-2-yl)-5-{[(2S)-4-methylmorpholin-2-yl]methoxy}-N-{(1R)-1-[6-(trifluoromethyl)pyridazin-3-yl]ethyl}benzamide], the IC50 turned out to be 23 nM at human P2X3 receptor (setting [1]) and 1560 nM at human P2X2/3 receptor.
For the compound `CC(C)c1cnc(-c2cc(OC[C@@H]3CCCO3)cc(C(=O)N[C@H](C)c3cnc(C(F)(F)F)nc3)c2)s1` [Example 290, 3-[5-(propan-2-yl)-1,3-thiazol-2-yl]-5-[(2S)-tetrahydrofuran-2-ylmethoxy]-N-{(1R)-1-[2-(trifluoromethyl)pyrimidin-5-yl]ethyl}benzamide], the IC50 worked out at 31 nM at human P2X3 receptor and 368 nM on human P2X2/3 receptor.
In the case of `Cc1cnc(-c2cc(O[C@@H]3CCOC3)cc(C(=O)N[C@H](C)c3ccc(C(F)(F)F)nc3)c2)s1` [Example 157, 3-(5-methyl-1,3-thiazol-2-yl)-5-[(3R)-tetrahydrofuran-3-yloxy]-N-{(1R)-1-[6-(trifluoromethyl)pyridin-3-yl]ethyl}benzamide], the results for the IC50 on human P2X3 receptor (setting [1]) and at human P2X2/3 receptor were 17 nM and 534 nM, respectively.
For `C[C@@H](NC(=O)c1cc(O[C@H]2CCOC2)cc(-c2ncc(Cl)s2)c1)c1ccc(C(F)(F)F)nn1` [Example 320, 3-(5-chloro-1,3-thiazol-2-yl)-5-[(3S)-tetrahydrofuran-3-yloxy]-N-{(1R)-1-[6-(trifluoromethyl)pyridazin-3-yl]ethyl}benzamide], the IC50 is 33 nM on human P2X3 receptor (setting [1]) and 627 nM at human P2X2/3 receptor.
For the compound `Cc1ccc([C@@H](C)NC(=O)c2cc(OC[C@H]3CCCO3)cc(-c3ncc(C(C)C)s3)c2)nn1` [Example 273, N-[(1R)-1-(6-methylpyridazin-3-yl)ethyl]-3-[5-(propan-2-yl)-1,3-thiazol-2-yl]-5-[(2R)-tetrahydrofuran-2-ylmethoxy]benzamide], the IC50 at human P2X3 receptor stood at 28 nM; on human P2X2/3 receptor it was 254 nM.
For the compound `CCc1cnc(-c2cc(O[C@H]3CCOC3)cc(C(=O)N[C@H](C)c3cnc(C(F)(F)F)nc3)c2)s1` [Example 251, 3-(5-ethyl-1,3-thiazol-2-yl)-5-[(3S)-tetrahydrofuran-3-yloxy]-N-{(1R)-1-[2-(trifluoromethyl)pyrimidin-5-yl]ethyl}benzamide], the IC50 on human P2X3 receptor (setting [1]) came out at 5 nM; on human P2X2/3 receptor, 38 nM.
On to `COC(=O)N1CCC(Oc2cc(C(=O)N[C@H](C)c3cnc(C(F)(F)F)nc3)cc(-c3ncc(C)s3)c2)CC1` [Example 226, Methyl 4-[3-(5-methyl-1,3-thiazol-2-yl)-5-({(1R)-1-[2-(trifluoromethyl)pyrimidin-5-yl]ethyl}carbamoyl)phenoxy]piperidine-1-carboxylate], for which the IC50 at human P2X3 receptor (setting [1]) was 6 nM; at human P2X2/3 receptor, 59 nM.
The corresponding values for `CC(C)c1cnc(-c2cc(O[C@@H]3CCOC3)cc(C(=O)N[C@H](C)c3cnc(C(F)(F)F)nc3)c2)s1` [Example 248, 3-[5-(propan-2-yl)-1,3-thiazol-2-yl]-5-[(3R)-tetrahydrofuran-3-yloxy]-N-{(1R)-1-[2-(trifluoromethyl)pyrimidin-5-yl]ethyl}benzamide] are 44 nM and 273 nM.
As to `Cc1cnc(-c2cc(OCC3CC(F)CN3C)cc(C(=O)N[C@H](C)c3ccc(C(F)(F)F)nc3)c2)s1` (stereo partly drawn) [Example 365, 3-{[4-fluoro-1-methylpyrrolidin-2-yl]methoxy}-5-(5-methyl-1,3-thiazol-2-yl)-N-{(1R)-1-[6-(trifluoromethyl)pyridin-3-yl]ethyl}benzamide], the IC50 on human P2X3 receptor (setting [1]) is 21 nM; on human P2X2/3 receptor it was 1050 nM.
In the same order, the values of `Cc1cnc(-c2cc(OC[C@H]3COCCO3)cc(C(=O)N[C@H](C)c3cnc(C(F)(F)F)nc3)c2)s1` [Example 178, 3-[(2R)-1,4-dioxan-2-ylmethoxy]-5-(5-methyl-1,3-thiazol-2-yl)-N-{(1R)-1-[2-(trifluoromethyl)pyrimidin-5-yl]ethyl}benzamide] are 39 nM and 1880 nM.
In the same order, the values of `C[C@@H](NC(=O)c1cc(OC[C@H]2CCOC2)cc(-c2ncc(Cl)s2)c1)c1cnc(C(F)(F)F)nc1` [Example 323, 3-(5-chloro-1,3-thiazol-2-yl)-5-[(3S)-tetrahydrofuran-3-ylmethoxy]-N-{(1R)-1-[2-(trifluoromethyl)pyrimidin-5-yl]ethyl}benzamide] are 25 nM and 411 nM.
In the same order, the values of `Cc1cnc(-c2cc(OC3CCOCC3)cc(C(=O)N[C@H](C)c3nnc(C)s3)c2)s1` [Example 92, N-[(1R)-1-(5-Methyl-1,3,4-thiadiazol-2-yl)ethyl]-3-(5-methyl-1,3-thiazol-2-yl)-5-(tetrahydro-2H-pyran-4-yloxy)benzamide] are 24 nM and 317 nM.
Take `C[C@@H](NC(=O)c1cc(OC2CCOCC2)cc(-c2ncc(C3CCC3)s2)c1)c1cnc(C(F)(F)F)nc1` [Example 238, 3-(5-cyclobutyl-1,3-thiazol-2-yl)-5-(tetrahydro-2H-pyran-4-yloxy)-N-{(1R)-1-[2-(trifluoromethyl)pyrimidin-5-yl]ethyl}benzamide]: the figures for the IC50 at human P2X3 receptor (setting [1]) and on human P2X2/3 receptor were 38 nM and 397 nM, respectively.
With `Cc1cnc(-c2cc(OC[C@@H]3CCCO3)cc(C(=O)N[C@H](C)c3cnc(C(F)(F)F)nc3)c2)s1` [Example 58, 3-(5-Methyl-1,3-thiazol-2-yl)-5-[(2S)-tetrahydrofuran-2-ylmethoxy]-N-{(1R)-1-[2-(trifluoromethyl)pyrimidin-5-yl]ethyl}benzamide], the IC50 was determined as 4 nM on human P2X3 receptor (setting [1]) and 461 nM on human P2X2/3 receptor.
The corresponding values for `Cc1cnc(-c2cc(OC3COC3)cc(C(=O)NC(C)c3nnc(C(F)(F)F)s3)c2)s1` (single isomer, unassigned) [Example 193, 3-(5-Methyl-1,3-thiazol-2-yl)-5-(oxetan-3-yloxy)-N-{1-[5-(trifluoromethyl)-1,3,4-thiadiazol-2-yl]ethyl}benzamide] are 2710 nM and at least 10000 nM.
In the same order, the values of `C[C@@H](NC(=O)c1cc(O[C@@H]2CCOC2)cc(-c2ncc(Cl)s2)c1)c1ccc(C(F)(F)F)nn1` [Example 318, 3-(5-chloro-1,3-thiazol-2-yl)-5-[(3R)-tetrahydrofuran-3-yloxy]-N-{(1R)-1-[6-(trifluoromethyl)pyridazin-3-yl]ethyl}benzamide] are 32 nM and 476 nM.
In the same order, the values of `Cc1ccc(Oc2cc(C(=O)N[C@H](C)c3cnc(C(F)(F)F)nc3)cc(-c3ncc(C)s3)c2)cn1` [Example 108, 3-[(6-Methylpyridin-3-yl)oxy]-5-(5-methyl-1,3-thiazol-2-yl)-N-{(1R)-1-[2-(trifluoromethyl)pyrimidin-5-yl]ethyl}benzamide] are 11 nM and 83 nM.

For the origin of these results see patent US10174016B2 (BAYER AKTIENGESELLSCHAFT, priority 2014, dated 2019).
